Source: US20070254314A1, “Methods of treating autism and autism spectrum disorders” (priority 2004, published 2007)
Where two headings read alike, the source gives them in different places.

Assays:
[1] = test system: chick embryo; details: single 50 μg of mercury dose; cited from earlier work
[2] = cited from earlier work
[3] = test system: neurons; details: nanomolar (nM) to micromolar (μM) concentrations, within hours of exposure; cited from earlier work
[4] = test system: susceptible mouse strain; details: weight- and age-adjusted 1990s US immunization schedule; cited from earlier work
[5] = test system: neuronal damage in tissue culture; details: cited from earlier work
[6] = From the text: (§1) The toxic metals were reported as μg/g creatinine in order to account for urine dilution variations.
as §1, §1, §1

[7] = test system: rats of the JCL-SD strain; details: 0.3 to 2 mg/kg intravenously; male more susceptible; cited from earlier work
[8] = test system: subject suffering from autism or an autism spectrum disorder; test: Clinical observation of symptoms (physician, parents, educators); assay type: in vivo, human
[9] = following three days of oral chelation with DMSA; cited from earlier work
[10] = Child X (autistic person), urine collected Nov. 5, 2000, during DMSA treatment, creatinine 43.4 mg/dL
[11] = Child X, urine collected Sep. 30, 2001, during DMSA treatment, creatinine 54 mg/dL
[12] = Child Y (autistic person), urine collected Jun. 29, 2002, during DMSA treatment, creatinine 6.9 mg/dL
[13] = Child Y, urine collected Dec. 24, 2002, during DMSA treatment, creatinine 8.6 mg/dL

Molecule	Toxic metals in urine, Results [6, 10]	Toxic metals in urine, Results [6, 11]	Toxic metals in urine, Results [6, 12]	Toxic metals in urine, Results [6, 13]	further results
C[CH2][Hg][S]c1ccccc1C(=O)[O-].[Na+] [thimerosal]					Fetal lethality and teratogenicity compared to controls [1]: significant fetal lethality and teratogenecity; Passage of the blood-brain barrier ([2]; infant monkeys, doses comparable to the US dosing schedule): crosses the blood-brain barrier; Half-life of inorganic mercury in the brain ([2]; infant monkeys): > 120 days; Maximum mercury concentration observed in the brain ([2]; infant monkeys): approximately 50 parts-per-billion; Overall half-life of mercury in the brain ([2]; infant monkeys): approximately 24 days; Inorganic mercury in the brains ([2]; thimerosal-treated infant monkeys, average following the dosing schedule): 16 parts-per-billion; Effects on neurons [3]: inducing neuronal death, neurodegeneration, membrane damage, and DNA damage; Neurotoxic effects [4]: autistic symptoms in a susceptible mouse strain
estrogen					Effect of concurrent exposure on mercury induced neuronal damage [5]: ameliorated
Bismuth	0.8 μg/g creatinine	<dl	<dl	<dl	
C[C@]12CC[C@H]3[C@@H](CCC4=CC(=O)CC[C@@]43C)[C@@H]1CC[C@@H]2O [testosterone]					Effect of concurrent exposure on mercury induced neuronal damage [5]: exacerbated
[Cl][Hg][Cl] [mercuric chloride]					Renal toxicity [7]: acute renal tubular necrosis was produced
Tungsten	<dl	0.3 μg/g creatinine	<dl	1.6 μg/g creatinine	
O=C(O)[C@@H](S)[C@@H](S)C(=O)O [DMSA, meso-2,3-dimercaptosuccinic acid]					Clinical improvement as a result of DMSA treatment ([8]; Child X): some improvement; Improvement in autism on DMSA treatment ([8]; Child Y): did not show significant improvement; Urinary mercury concentration, autistic children versus matched normal controls [9]: approximately 6 fold; Mercury in urine on DMSA treatment ([6]; Child X, DMSA Oct. 21, 2000 through Feb. 3, 2002): spilled toxic levels of mercury in their urine; Mercury in urine on DMSA treatment ([6]; Child Y, DMSA Jun. 26, 2002 to May 2, 2003): spilled toxic levels of mercury in their urine
Arsenic	98 μg/g creatinine	37 μg/g creatinine	31 μg/g creatinine	23 μg/g creatinine	
Thallium	0.2 μg/g creatinine	0.2 μg/g creatinine	0.9 μg/g creatinine	0.6 μg/g creatinine	
Cadmium	1.4 μg/g creatinine	0.5 μg/g creatinine	<dl	1.6 μg/g creatinine	
Antimony	0.4 μg/g creatinine	<dl*	<dl	<dl	
Aluminum	26 μg/g creatinine	14 μg/g creatinine	<dl*	<dl*	
Platinum	0.2 μg/g creatinine	<dl	<dl	<dl	
Lead	12 μg/g creatinine	8.6 μg/g creatinine	<dl	<dl	
Beryllium	<dl*	<dl	<dl	<dl	
